# Data from patent US20180333491A1 (Sinotau Pharmaceuticals Group, priority 2015, published 2018).
# Marks after values point to notes of the source that are not given here.
# Experiments:
# DR4 = biological target: T1, DR4 (Homo sapiens, UniProt O00220); experiment: CLEIA binding specificity; conditions: DR4-His-EC coated; antibody 200, 40 and 8 ng/mL
# T1 construct: His; Lot: 090222-P; host or cells: E. coli
# Experimental: (§1) The binding specificity of HuCTB006 was evaluated by chemiluminescent enzyme immunoassay (CLEIA).
# (§2) HuCTB006 was diluted into 200, 40 and 8 ng/mL and then added to the wells. After 1 hour incubation in 37° C., the plate was washed. The binding of HuCTB006 with immobilized antigens was detected with HRP labeled secondary antibody and a substrate solution.
# [1] = biological target: T2, DcR1 (recombinant human TRAIL R3/TNFRSF10C) (Homo sapiens, UniProt O14798); experiment: CLEIA binding specificity; conditions: DcR1-His coated; antibody 200, 40 and 8 ng/mL
# T2 construct: His; purchased Novoprotein Science Lot: 0328670
# T2 sequence (O14798 26-236): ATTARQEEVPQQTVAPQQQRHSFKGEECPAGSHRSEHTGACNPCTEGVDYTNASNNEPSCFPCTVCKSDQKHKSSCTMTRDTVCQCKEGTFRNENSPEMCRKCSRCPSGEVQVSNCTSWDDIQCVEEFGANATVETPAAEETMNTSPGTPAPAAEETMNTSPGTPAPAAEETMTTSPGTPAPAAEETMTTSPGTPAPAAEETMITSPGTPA
# Experimental: as §1, §2
# [2] = biological target: T3, DcR2 (recombinant human TRAIL R4/TNFRSF10D) (Homo sapiens, UniProt Q9UBN6); experiment: CLEIA binding specificity; conditions: DcR2-His coated; antibody 200, 40 and 8 ng/mL
# T3 construct: His; purchased Sino Biological Lot: LC06JU1502
# T3 sequence (Q9UBN6 56-386): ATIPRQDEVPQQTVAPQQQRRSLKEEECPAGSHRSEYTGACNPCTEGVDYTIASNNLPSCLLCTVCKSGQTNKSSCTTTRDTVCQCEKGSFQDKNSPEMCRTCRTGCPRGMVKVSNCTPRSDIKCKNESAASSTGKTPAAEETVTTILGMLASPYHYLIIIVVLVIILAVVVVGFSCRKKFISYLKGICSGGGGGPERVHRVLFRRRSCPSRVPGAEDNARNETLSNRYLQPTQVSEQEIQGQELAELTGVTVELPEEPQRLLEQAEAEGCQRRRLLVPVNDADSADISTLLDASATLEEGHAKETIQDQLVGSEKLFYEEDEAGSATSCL
# Experimental: as §1, §2
# [3] = biological target: T4, OPG (recombinant human osteroprotegerin/TNFRSF11B) (Homo sapiens, UniProt O00300); experiment: CLEIA binding specificity; conditions: OPG-His coated; antibody 200, 40 and 8 ng/mL
# T4 construct: His; purchased Wuxi Pharmatech Co. Ltd Lot: 20120717
# T4 sequence (O00300 22-401): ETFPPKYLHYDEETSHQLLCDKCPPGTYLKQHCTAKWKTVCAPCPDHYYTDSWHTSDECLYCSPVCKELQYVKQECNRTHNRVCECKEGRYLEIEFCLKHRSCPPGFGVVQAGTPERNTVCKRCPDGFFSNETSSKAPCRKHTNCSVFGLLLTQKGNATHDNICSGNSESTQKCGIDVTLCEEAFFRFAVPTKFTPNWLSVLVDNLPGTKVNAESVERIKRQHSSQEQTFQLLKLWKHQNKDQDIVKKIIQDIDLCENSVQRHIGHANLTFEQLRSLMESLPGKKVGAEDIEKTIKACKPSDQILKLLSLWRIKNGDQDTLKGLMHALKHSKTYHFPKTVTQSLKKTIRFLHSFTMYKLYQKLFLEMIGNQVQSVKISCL
# Experimental: as §1, §2
# [4] = tested on: human colon cancer tumor cells Colo205; experiment: Colo205 subcutaneous model; format: in vivo, nude mice; conditions: for Tumor Volume (cm^3) Mean ± SEM / TGI (Calculated using tumor volume): Day 28 after treatment; for Time of tumor volume changed significantly: days after first treatment; for Tumor weight (g) Mean ± SEM / TGI (Calculated using tumor weight): end of experiment
# Experimental: (§3) Tumor cells (i.e., MIA-PaCa-2, WiDr, H2122, colo205) were inoculated in nude mice's flank at 5×10^6 cells per mouse. The mice were grouped when the average volume of tumors reached about 100˜200 mm^3. “QW”=weekly dose. “Q3d”=dosed every third day. “BiW”=biweekly.
# (§4) The bodyweight and major/minor axis of the mice were measured twice a week, and the tumor volumes were calculated using the formula: Tumor volume=1/2×major axis[…]. […] “T” represents average tumor volume of the experimental group (cm^3), and “C” represents average tumor volume of the control group (cm^3). The animals were monitored at all times. The bodyweight and major/minor axis or mice were measured twice a week.
# (§5) Tumor volumes were represented with average ±standard error. […] P<0.05 represents significant difference.
# [5] = tested on: human colon cancer tumor cells Widr; experiment: WiDr subcutaneous model; format: in vivo, nude mice; conditions: for Tumor Volume (cm^3) Mean ± SEM / TGI (Calculated using tumor volume): Day 27 after treatment; for TGI (Calculated using tumor volume): listed as HuTB006; for Tumor weight (g) Mean ± SEM: end of experiment
# Experimental: as §3, §4, §5
# [6] = tested on: human lung cancer tumor cells H2122; experiment: H2122 subcutaneous model; conditions: for Tumor Volume (cm^3) Mean ± SEM: Day 38 after treatment; for Tumor weight (g) Mean ± SEM: end of experiment
# Experimental: (§6) The bodyweight and major/minor axis of the mice were measured twice a week, and the tumor volumes were calculated using the formula: Tumor volume=1/2×major axis×minor axis. […] “T” represents average tumor volume of the experimental group (cm^3), and “C” represents average tumor volume of the control group (cm^3). The animals were monitored at all times. The bodyweight and major/minor axis or mice were measured twice a week. When the experiments were concluded, mice were sacrificed and tumors were extracted and weighted.
# (§7) Tumor volumes were represented with average ±standard error. Data analysis was done using Spss16.0, One-Way ANOVA, LSD (homogeneity of variance) or Dunnett T3 (non-homogeneity of variance). […] P<0.05 represents significant difference.
# [7] = tested on: human pancreatic cancer tumor cells MIA-PaCa-2; experiment: MIA-PaCa-2 subcutaneous model; conditions: for Tumor Volume (cm^3) Mean ± SEM: 34 days of treatment; for Time of tumor volume changed significantly: days after first treatment; for Tumor weight (g) Mean ± SEM: end of experiment
# Experimental: as §6, §7
# [8] = HuCTB006 0.6 mg/kg i.v., 0.6 mg/kg
# [9] = HuCTB006 1.8 mg/kg i.v., 1.8 mg/kg
# [10] = HuCTB006 5.4 mg/kg i.v., 5.4 mg/kg
substance,measurement,setting,value
"HuCTB006: Monospecific humanized chimeric monoclonal antibody directed to TRAIL-R2 receptor; heavy chain SEQ ID NO: 16, light chain SEQ ID NO: 14",cross-reaction with coated antigen (CLEIA),DR4,no cross-reaction
same,cross-reaction with coated antigen (CLEIA),[1],no cross-reaction
same,cross-reaction with coated antigen (CLEIA),[2],no cross-reaction
same,cross-reaction with coated antigen (CLEIA),[3],no cross-reaction
same,Tumor Volume (cm^3) Mean ± SEM,[4]; HuCTB006 0.2 mg/kg i.v.,1.24 ± 0.20 cm^3
same,Time of tumor volume changed significantly,[4]; HuCTB006 0.2 mg/kg i.v.,10 days
same,Tumor weight (g) Mean ± SEM,[4]; HuCTB006 0.2 mg/kg i.v.,0.84 ± 0.14 g
same,TGI (Calculated using tumor volume),[4]; HuCTB006 0.6 mg/kg i.v.,84.78%
same,Tumor Volume (cm^3) Mean ± SEM,[4]; HuCTB006 0.6 mg/kg i.v.,0.29 ± 0.13 cm^3
same,TGI (Calculated using tumor volume),[4]; [8],84.78%*
same,TGI (Calculated using tumor weight),[4]; HuCTB006 0.6 mg/kg i.v.,84.07%
same,Tumor weight (g) Mean ± SEM,[4]; HuCTB006 0.6 mg/kg i.v.,0.20 ± 0.10 g
same,TGI (Calculated using tumor weight),[4]; [8],84.07%*
same,TGI (Calculated using tumor volume),[4]; HuCTB006 1.8 mg/kg i.v.,80.07%
same,Tumor Volume (cm^3) Mean ± SEM,[4]; HuCTB006 1.8 mg/kg i.v.,0.38 ± 0.16 cm^3
same,TGI (Calculated using tumor volume),[4]; [9],80.07%*
same,TGI (Calculated using tumor weight),[4]; HuCTB006 1.8 mg/kg i.v.,81.78%
same,Tumor weight (g) Mean ± SEM,[4]; HuCTB006 1.8 mg/kg i.v.,0.23 ± 0.12 g
same,TGI (Calculated using tumor weight),[4]; [9],81.78%*
same,TGI (Calculated using tumor volume),[4]; HuCTB006 5.4 mg/kg i.v.,85.24%
same,Tumor Volume (cm^3) Mean ± SEM,[4]; HuCTB006 5.4 mg/kg i.v.,0.28 ± 0.10 cm^3
same,TGI (Calculated using tumor volume),[4]; [10],85.24%*
same,Time of tumor volume changed significantly,[4]; HuCTB006 5.4 mg/kg i.v.,7~10^2 days
same,TGI (Calculated using tumor weight),[4]; HuCTB006 5.4 mg/kg i.v.,88.15%
same,Tumor weight (g) Mean ± SEM,[4]; HuCTB006 5.4 mg/kg i.v.,0.15 ± 0.07 g
same,TGI (Calculated using tumor weight),[4]; [10],88.15%*
same,Tumor Volume (cm^3) Mean ± SEM,[5]; HuCTB006 0.07 mg/kg i.v.,1.76 ± 0.18 cm^3
same,TGI (Calculated using tumor volume),[5]; HuCTB006 0.07 mg/kg i.v.,6.61%^1
same,Tumor weight (g) Mean ± SEM,[5]; HuCTB006 0.07 mg/kg i.v.,1.29 ± 0.18 g
same,Tumor Volume (cm^3) Mean ± SEM,[5]; HuCTB006 0.22 mg/kg i.v.,1.54 ± 0.18 cm^3
same,TGI (Calculated using tumor volume),[5]; HuCTB006 0.22 mg/kg i.v.,18.71%^ac
same,Tumor weight (g) Mean ± SEM,[5]; HuCTB006 0.22 mg/kg i.v.,1.16 ± 0.13 g
same,Tumor Volume (cm^3) Mean ± SEM,[5]; HuCTB006 0.67 mg/kg i.v.,0.96 ± 0.10 cm^3
same,Tumor weight (g) Mean ± SEM,[5]; HuCTB006 0.67 mg/kg i.v.,0.68 ± 0.08 g
same,Tumor Volume (cm^3) Mean ± SEM,[5]; HuCTB006 2 mg/kg i.v.,0.80 ± 0.11 cm^3
same,Tumor weight (g) Mean ± SEM,[5]; HuCTB006 2 mg/kg i.v.,0.53 ± 0.08 g
same,Tumor Volume (cm^3) Mean ± SEM,[6]; HuCTB006 0.2 mg/kg i.v.,1.85 ± 0.15 cm^3
same,Tumor weight (g) Mean ± SEM,[6]; HuCTB006 0.2 mg/kg i.v.,1.54 ± 0.09 g
same,Tumor Volume (cm^3) Mean ± SEM,[6]; HuCTB006 0.6 mg/kg i.v.,1.02 ± 0.31 cm^3
same,Tumor weight (g) Mean ± SEM,[6]; HuCTB006 0.6 mg/kg i.v.,0.89 ± 0.29 g
same,Tumor Volume (cm^3) Mean ± SEM,[6]; HuCTB006 1.8 mg/kg i.v.,0.16 ± 0.16 cm^3
same,Tumor weight (g) Mean ± SEM,[6]; HuCTB006 1.8 mg/kg i.v.,0.12 ± 0.12 g
same,Tumor Volume (cm^3) Mean ± SEM,[6]; HuCTB006 5.4 mg/kg i.v.,0.18 ± 0.18 cm^3
same,Tumor weight (g) Mean ± SEM,[6]; HuCTB006 5.4 mg/kg i.v.,0.19 ± 0.18 g
same,Tumor Volume (cm^3) Mean ± SEM,[7]; HuCTB006 0.2 mg/kg i.v.,1.76 ± 0.15 cm^3
same,Time of tumor volume changed significantly,[7]; HuCTB006 0.2 mg/kg i.v.,13 days
same,Tumor weight (g) Mean ± SEM,[7]; HuCTB006 0.2 mg/kg i.v.,0.79 ± 0.07 g
same,Tumor Volume (cm^3) Mean ± SEM,[7]; HuCTB006 0.6 mg/kg i.v.,1.27 ± 0.43 cm^3
same,Tumor weight (g) Mean ± SEM,[7]; HuCTB006 0.6 mg/kg i.v.,0.54 ± 0.21 g
same,Tumor Volume (cm^3) Mean ± SEM,[7]; HuCTB006 1 mg/kg i.v.,0.88 ± 0.35 cm^3
same,Tumor weight (g) Mean ± SEM,[7]; HuCTB006 1 mg/kg i.v.,0.37 ± 0.19 g
same,Tumor Volume (cm^3) Mean ± SEM,[7]; HuCTB006 10 mg/kg i.v.,0.76 ± 0.22 cm^3
same,Time of tumor volume changed significantly,[7]; HuCTB006 10 mg/kg i.v.,7^2 days
same,Tumor weight (g) Mean ± SEM,[7]; HuCTB006 10 mg/kg i.v.,0.19 ± 0.08 g
same,bodyweights,"[7]; MIA-PaCa-2 model, over the treatment time",slow increase
